Results as given in PMC9908032, “Novel nitroxide-bile acid conjugates inform substrate requirements for human bile acid transporters” (European journal of pharmaceutical sciences : official …, 2022).

T1: Na+/taurocholate cotransporting polypeptide (hNTCP) (Homo sapiens, UniProt Q14973)
T1 construct: gene SLC10A1
T1 sequence (Q14973 1-349): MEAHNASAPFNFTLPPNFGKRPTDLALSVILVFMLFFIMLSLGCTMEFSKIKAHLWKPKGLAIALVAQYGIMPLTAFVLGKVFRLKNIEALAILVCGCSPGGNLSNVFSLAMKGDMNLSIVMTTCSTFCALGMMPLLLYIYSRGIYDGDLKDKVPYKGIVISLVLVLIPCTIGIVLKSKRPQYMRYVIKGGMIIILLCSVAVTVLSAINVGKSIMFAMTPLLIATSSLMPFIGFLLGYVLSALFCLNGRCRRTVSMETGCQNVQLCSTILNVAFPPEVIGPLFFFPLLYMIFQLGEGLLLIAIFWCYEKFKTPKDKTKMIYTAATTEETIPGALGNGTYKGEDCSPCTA

T2: apical sodium dependent bile acid transporter (hASBT) (Homo sapiens, UniProt Q12908)
T2 construct: gene SLC10A2
T2 sequence (Q12908 1-348): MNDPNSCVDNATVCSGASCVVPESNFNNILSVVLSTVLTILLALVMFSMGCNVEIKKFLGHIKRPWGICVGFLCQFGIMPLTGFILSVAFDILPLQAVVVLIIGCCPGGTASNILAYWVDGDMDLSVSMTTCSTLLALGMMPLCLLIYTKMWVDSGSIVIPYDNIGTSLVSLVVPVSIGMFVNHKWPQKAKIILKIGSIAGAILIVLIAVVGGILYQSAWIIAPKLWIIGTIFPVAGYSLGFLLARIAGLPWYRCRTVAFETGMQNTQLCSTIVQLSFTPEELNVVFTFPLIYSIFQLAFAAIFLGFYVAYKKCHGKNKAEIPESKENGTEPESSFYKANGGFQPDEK

B1: Na+/taurocholate cotransporting polypeptide (hNTCP) (Homo sapiens) (protein)
chain: T1 sequence (Q14973 1-349)

Tests used:
[1] = target: T1, Na+/taurocholate cotransporting polypeptide (hNTCP); assay: inhibition of [3H]-taurocholate uptake in transiently transfected hNTCP-HEK293T cells; type: cell-based
[2] = target: T2, apical sodium dependent bile acid transporter (hASBT); assay: inhibition of [3H]-taurocholate uptake in stably transfected hASBT-MDCK cells; type: cell-based
[3] = substrate: C[C@H](CCC(=O)NCCS(=O)(=O)O)[C@H]1CC[C@H]2[C@@H]3[C@H](O)C[C@@H]4C[C@H](O)CC[C@]4(C)[C@H]3C[C@H](O)[C@]12C; assay: cells, lysate or membranes; settings: Na+

Molecule	Ki [1]	Ki [2]	Km [3]
C[C@H](CCC(=O)NCC(=O)O)[C@H]1CC[C@H]2[C@@H]3[C@H](O)C[C@@H]4C[C@H](O)CC[C@]4(C)[C@H]3C[C@H](O)[C@]12C [GCA, glycocholic acid]	2.47 ± 0.43 µM	8.28 ± 0.57 µM	–
B1	–	–	2.14 ± 1.55 µM
